Measured values published in PubChem BioAssay (NCI).
Where “and” joins values, the source holds several entries; their conditions need not be identical. Identical values can stand only once.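 Assay format: 96-well plates, 48-hour exposure. GI50 = concentration required for 50% inhibition of growth. TGI: concentration producing complete growth inhibition.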

Key:
Experiment in all cases: NCI-60 cell line screen, 48 h
[1] = test system: SF-295 CNS
[2] = test system: A498 renal
[3] = test system: LOX IMVI melanoma
[4] = test system: NCI-H522 lung
[5] = test system: A549 NSCLC
[6] = test system: NCI-H226 lung
[7] = test system: U251 CNS
[8] = test system: NCI-H460 lung
[9] = test system: NCI/ADR-RES ovarian
[10] = test system: HS 578T breast

SMILES	TGI [1] [µM]	TGI [2]	TGI [3] [µM]	TGI [4] [µM]	TGI [5] [µM]	TGI [6] [µM]	TGI [7] [µM]	TGI [8] [µM]	GI50 [1] [nM]	GI50 [2]	GI50 [3] [µM]	GI50 [4] [µM]	GI50 [5] [µM]	GI50 [6] [µM]	GI50 [7] [µM]	GI50 [8] [µM]	GI50 [9]	TGI [9]	TGI [10] [µM]	GI50 [10] [nM]
O=c1c(-c2ccccc2)c2oc(c1-c1ccccc1)CSCc1cccc(c1)CSC2	> 100	69.6 µM	> 100	> 100	> 100	> 100	88.2	> 100	–	–	–	–	–	–	–	–	–	–	–	–
COC(=O)C(CCCN1C(=O)c2ccccc2C1=O)C(=O)OC	> 100	> 100 µM	> 100	> 100	> 100	> 100	> 100	> 100	–	–	–	–	–	–	–	–	–	–	–	–
CCCCCC[C@@H]1CCC2C(CO)[C@@H](O)CC[C@@H]2C1 (stereo partly specified)	30.3	–	34.6	31.5	32.1	39.7	33.9	30.4	–	–	–	–	–	–	–	–	–	–	–	–
CCCOc1cc2ccccc2cc1C(=O)Nc1nc(N)c2c(ccc3nccc32)[nH]1	1.26	0.622 µM	2.02	0.0426	1.86	3.32	1.4	1.31	30.7	31.2 nM	0.0511	0.018	0.0993	1.31	0.0527	0.0417	0.0962 µM	2.24 µM	–	–
O=C(/C=C/c1ccc([N+](=O)[O-])cc1)c1ccc(NCc2nc3ccccc3[nH]2)cc1	18.1	24.1 µM	6.54	11.9	–	–	3.23	5.64	–	–	–	–	–	–	–	–	–	–	–	–
C/C(=C\CBr)CCC(Br)C(C)(C)Br (stereo unspecified)	> 100	> 100 µM	–	> 100	> 100	> 100	> 100	> 100	–	–	–	–	–	–	–	–	–	> 100 µM	> 100	–
Nc1n[nH]c2cccc(C#Cc3cccc(C(=O)Nc4ccc(CN5CCOCC5)c(C(F)(F)F)c4)c3)c12	6.1	–	4.02	9.28	11.3	7.81	15.2	10.3	2030	–	1.67	2.52	3.13	1.14	2.75	3.2	3.07 µM	> 100 µM	8.23	2190
C=CC[C@H](C[C@H](C[C@H](C[C@H](C[C@H](C[C@H](C[C@H](C[C@H](C[C@H](C[C@H](CCCCC)OC)OC)OC)OC)OC)OC)OC)OC)OC)OC	> 100	> 100 µM	> 100	> 100	> 100	> 100	> 100	> 100	–	–	–	–	–	–	–	–	–	–	–	–
Oc1[nH]c2ccccc2c1N=Nc1nc(-c2ccc(Br)cc2)cs1	67.7	–	33.1	> 100	70.8	–	28.1	65.8	–	–	–	–	–	–	–	–	–	44.1 µM	65	–
CC(=O)O/N=C(/C)c1ccccc1O	> 100	–	> 100	> 100	> 100	> 100	> 100	> 100	–	–	–	–	–	–	–	–	–	–	–	–
CCCCN(CCCC)C(=O)C(=O)C(C(=O)c1ccc(OC)cc1)c1ccc(OC)cc1 (stereo unspecified)	> 100	–	> 100	–	> 100	> 100	> 100	> 100	–	–	–	–	–	–	–	–	–	–	–	–
CCc1c(OC(C)=O)c2c(NC3OCC(OC(C)=O)C(OC(C)=O)C3OC(C)=O)nc(SC)nc2oc1=O (stereo unspecified)	> 100	> 100 µM	> 100	–	> 100	> 100	> 100	> 100	–	–	–	–	–	–	–	–	–	–	–	–
O=[N+]([O-])c1ccc(Cl)cc1N/N=C/c1ccnc2ccccc12	> 100	–	–	> 100	> 100	> 100	> 100	> 100	–	–	–	–	–	–	–	–	–	> 100 µM	> 100	–
COc1ccc(OC)c(N2CC(N)C2=O)c1 (stereo unspecified)	> 100	> 100 µM	> 100	> 100	> 100	> 100	> 100	> 100	–	–	–	–	–	–	–	–	–	–	–	–
O=C(Oc1ccc(Cl)cc1)c1ccccc1Nc1ccnc(C(F)(F)F)c1	> 100	–	–	52.2	52.3	16.8	–	35.4	62800	–	–	4.22	15.3	2.94	–	10.5	16.2 µM	49.5 µM	93.9	30300
COc1cccc(C2SC(N)=Nc3c2c(C)nn3C(=O)c2ccccc2O)c1 (stereo unspecified)	> 10	> 10 µM	> 10	> 10	> 10	> 7.78	> 10	> 10	–	–	–	–	–	–	–	–	–	> 10 µM	–	–
COc1cc(C2CC(C)(O)Oc3cc4c(cc32)OCO4)cc(OC)c1OC (stereo unspecified)	–	> 100 µM	> 100	0.661	> 100	–	20.1	17.6	–	–	–	–	–	–	–	–	–	–	0.696	–
Cc1ccc(/C=C/C(=O)c2cccc3ccccc23)cc1	31.7	27.4 µM	–	34.2	43.2	34.3	25.6	30.7	–	–	–	–	–	–	–	–	–	–	–	–
Cc1cccc(C)c1NC(=O)CCCC(=O)C1/C(=N/NC(=O)CC#N)CCC/C1=N\NC(=O)CC#N (stereo unspecified)	> 100	> 100 µM	–	> 100	> 100	> 100	> 100	> 100	–	–	–	–	–	–	–	–	–	–	–	–
O=C1C=CC(=O)c2nc3c(cc21)CCC3	> 100	–	29.9	25.4	> 100	–	> 100	> 100	–	–	–	–	–	–	–	–	–	–	–	–
CN(C)c1cc(NN=C(c2ccc(O)cc2)c2ccc(O)cc2)c([N+](=O)[O-])cc1[N+](=O)[O-]	5.22	21.6 µM	15.2	38.4	18.5	32.3	18.3	15.9	1860	8180 nM	3.04	10.5	4.45	13.1	5.61	4.36	5.3 µM	27 µM	–	–

SMILES	TGI [1] [µM]	TGI [2]	TGI [3] [µM]	TGI [4] [µM]	TGI [5] [µM]	TGI [6] [µM]	TGI [7] [µM]	TGI [8] [µM]	GI50 [1] [nM]	GI50 [2]	GI50 [3] [µM]	GI50 [4] [µM]	GI50 [5] [µM]	GI50 [6] [µM]	GI50 [7] [µM]	GI50 [8] [µM]	GI50 [9]	TGI [9]	TGI [10] [µM]	GI50 [10] [nM]
CCCCCCCCCCCCC(O)c1ccc(C#CCCCCCCCCCO)o1 (stereo unspecified)	31.7	–	33.5	45.5	32.9	37.9	33.6	75.4	16400	–	18.5	21	16.9	21.2	18.5	28.3	18.3 µM	34.3 µM	47.3	23800
COC(=O)CC(c1ccccc1)C1(c2ccccc2)SCCS1 (stereo unspecified)	> 290	–	> 290	> 290	> 290	> 290	> 290	> 290	–	–	–	–	–	–	–	–	–	–	–	–
O=S(=O)(N/N=C/c1cccc(/C=N/NS(=O)(=O)c2ccccc2)c1)c1ccccc1	> 100	> 100 µM	> 100	–	> 100	> 100	> 100	> 100	–	–	–	–	–	–	–	–	–	–	–	–
C=C(C)CCOC(c1ccccc1)(c1ccccc1)c1ccccc1	> 100	–	79.2	76.3	> 100	97.8	> 100	> 100	–	–	–	–	–	–	–	–	–	–	–	–
S=c1sc2c(n1-c1ccccc1)NC=NC2S (stereo unspecified)	> 100	–	> 100	> 100	> 100	> 100	> 100	> 100	–	–	–	–	–	–	–	–	–	–	–	–
O=c1ccc2ccccc2cc1[O-].O=c1ccc2ccccc2cc1[O-].[O]=[U+2]=[O]	63.5	43.1 µM	> 100	56	56	–	46.5	> 100	17700	18600 nM	14.1	11.6	4.78	–	16.5	13.6	–	–	–	–
Nc1cc(NN=C(c2ccc(O)cc2)c2ccc(O)cc2)c([N+](=O)[O-])cc1[N+](=O)[O-]	2.91	3.55 µM	3.1	6.51	5.69	–	4.15	3.47	1400	1690 nM	1.65	2.46	2.29	–	1.93	1.79	3.49 µM	11.6 µM	–	–
C/C(=N/Nc1ccc([N+](=O)[O-])cc1[N+](=O)[O-])C(CC(C(=O)NCc1ccccc1)/C(C)=N\Nc1ccc([N+](=O)[O-])cc1[N+](=O)[O-])C(=O)NCc1ccccc1 (stereo unspecified)	18.2	30.5 µM	–	–	14.6	25.8	11.1	17.5	–	–	–	–	–	–	–	–	–	–	–	–
Cc1ccc(-n2c3nc(=O)[nH]c(=O)c-3cc3cc([N+](=O)[O-])ccc32)cc1	37.3	45.2 µM	21.5	77.5	> 100	86	> 100	> 100	15900	20500 nM	4.77	33.2	44.6	24.6	5.14	17.1	10.7 µM	34.4 µM	–	–
CC(=O)NNc1nc(C)c(C(=O)/C=C/c2ccc(NC(C)=O)cc2)s1	> 100	> 100 µM	> 100	> 100	> 100	–	> 100	> 100	–	–	–	–	–	–	–	–	–	–	–	–
COCCOc1ccc(-c2nc3ccc(-c4nc5ccc(N6CCN(C)CC6)cc5[nH]4)cc3[nH]2)cc1	15.7	3.39 µM	2.83	2.36	35.2	–	10.2	14.7	1380	1210 nM	0.851	0.341	8.05	–	0.659	3.63	> 100 µM	> 100 µM	15.9	2940
O=C(Nc1ccccc1-c1nn(C(=S)Nc2ccccc2)c(=S)n(C(=S)Nc2ccccc2)c1=O)C(F)(F)F	> 100	> 76.6 µM	> 66.1	58.5	> 100	76	> 70.9	> 100	–	–	–	–	–	–	–	–	–	–	–	–
CC(C)(C)c1cc2ccc(C(N)=O)cc2c(=O)[nH]1	> 100	> 100 µM	> 100	> 100	> 100	> 100	> 100	> 100	–	–	–	–	–	–	–	–	–	–	–	–
CC(=O)OCCOCNC(=S)N/N=C(\C)c1cnccn1	> 100	> 100 µM	> 100	97	> 100	79.7	> 100	> 100	–	–	–	–	–	–	–	–	–	–	–	–
Cc1ccc(Oc2ccc(C)cc2N)cc1	> 100	> 100 µM	> 100	–	> 100	> 100	> 100	> 100	–	–	–	–	–	–	–	–	–	–	–	–
CC(C)(C)c1cc2c(O)c3cccc4c(=O)c5cccc6c5-c(c34)c2c(c1)c6=O	> 100	> 100 µM	> 100	> 100	> 100	> 100	> 100	> 100	–	–	–	–	–	–	–	–	–	–	–	–
Cc1ccc(/C=C/C(=O)CCN(C)C)cc1	> 100	> 100 µM	31.6	–	38.4	49.4	30	65.6	–	–	–	–	–	–	–	–	–	–	–	–
COc1nc(NC2OC(COC(C)=O)C(OC(C)=O)C(OC(C)=O)C2OC(C)=O)c2c(OC(C)=O)cc(=O)oc2n1 (stereo unspecified)	> 100	30.2 µM	> 100	–	> 100	> 100	> 100	34.1	–	–	–	–	–	–	–	–	–	–	–	–
CCCCCCCCCCCCCCCC[N+](C)(C)Cc1ccccc1	3.29	6.3 µM and 4.83 µM	–	–	–	–	–	–	1550	1920 nM and 1870 nM	–	–	–	–	–	–	14.4 µM and 12 µM	45.1 µM and 42 µM	4.89	1820
N[C@@H]1CCCC[C@@H]1N.O=P([O-])([O-])CN(CCN(CP(=O)([O-])[O-])CP(=O)([O-])[O-])CP(=O)([O-])[O-].[Pt+2]	> 25	> 25 µM	> 25	> 25	> 25	> 25	> 25	> 25	> 25000	> 25000 nM	> 25	> 25	> 25	> 25	> 25	> 25	–	–	–	–
